The text below walks through data of ChEMBL document CHEMBL1134031, “Dimeric L-dopa derivatives as potential prodrugs” (Bioorg Med Chem Lett, 2001).

The nature of data set [1]: physchem. The note with it: octanol/phosphate buffer, pH 7.4.
Description: Partition coefficient value in octanol and phosphate buffer (log P) at pH of 7.4 was determined.
For data set [2] the following is noted: human, plasma.
Description: (§1) Observed rate constant in 80% human plasma at 37 degree Centigrade
Data set [3] in a line: in vitro. The note with it: rat, 80% rat plasma.
Description: Half life period in 80% rat plasma at 37 degree Centigrade
For data set [4] the following is noted: pH 1.3.
Description: Observed rate constant at a pH of 1.3
A short description of data set [5]: physchem. Particulars: pH 1.3.
Description: Half life period at a pH 1.3 was determined
For data set [6] the following is noted: pH 7.4.
Description: Observed rate constant at a pH of 7.4
The conditions of data set [7]: human, plasma. The source holds these as a separate data set.
Description: as §1
Data set [8] is described as follows: physchem. Particulars: dog, in vivo, pH 7.4.
Description: Half life period at a pH 7.4 was determined
Data set [9] can be described thus: in vitro. The note with it: human, 80% human plasma, T1/2.
Description: (§2) Half life period in 80% human plasma at 37 degree Centigrade
The conditions of data set [10]: human, plasma. This is another data set of the same source.
Description: as §2

Where “and” joins values, the source holds several entries; their conditions need not be identical. Equal values may be shown once.

Description for Rattus norvegicus: Observed rate constant in 80% rat plasma at 37 degree Centigrade

Take `COC(=O)[C@H](Cc1ccc(OC(C)=O)c(OC(C)=O)c1)NC(=O)CCCCC(=O)N[C@@H](Cc1ccc(OC(C)=O)c(OC(C)=O)c1)C(=O)OC`: the logD (as a rule, the decadic logarithm of the distribution of all forms, ionised or not, between an organic phase and buffer at a given pH) in the data set “physchem [1]” came to 0.92. In data set [2], this compound displayed a k2 obs of 0.01 min⁻¹. The results for the half-life in the data set “in vitro [3]”, in the data set “physchem [5]” and in the data set “physchem [8]” were 0.0683 h, 48.8 h and 17.3 h, respectively. In addition, the K obs is 0.014 h⁻¹ in [4], 0.17 min⁻¹ in the data set listed under Rattus norvegicus and 0.04 h⁻¹ in [6]. Also, the k1 obs in [7] stood at 0.081 min⁻¹.

Take `COC(=O)[C@H](Cc1ccc(OC(C)=O)c(OC(C)=O)c1)NC(=O)C(=O)N[C@@H](Cc1ccc(OC(C)=O)c(OC(C)=O)c1)C(=O)OC`: the logD in “physchem [1]” was found to be 0.73. Moreover, the k2 obs in [2] worked out at 0.0045 min⁻¹. The half-life – broadly, how long it takes for the measured level to halve – in “in vitro [3]” was 0.102 h; in “in vitro [9]” it was 1.38 h; in “physchem [5]”, 20 h; in the data set “physchem [8]” it was 14.2 h. The K obs in data set [4] was 0.032 h⁻¹; in the data set listed under Rattus norvegicus it was 0.11 min⁻¹; in [6] it was 0.049 h⁻¹. The same compound registered a k1 obs in data set [7] of 0.0083 min⁻¹. The compound also came in with a T1/2 in data set [10] of 2.547 h.

Take `COC(=O)[C@H](Cc1ccc(OC(C)=O)c(OC(C)=O)c1)NC(=O)CCC(=O)N[C@@H](Cc1ccc(OC(C)=O)c(OC(C)=O)c1)C(=O)OC`: in “physchem [1]”, the logD amounted to 0.85. For the same compound, the k2 obs in [2] worked out at 0.0086 min⁻¹. The half-life in “in vitro [3]” was 0.0333 h; in “physchem [5]” it was 55.4 h; in “physchem [8]”, 16.2 h. Further, the K obs was determined as 0.13 h⁻¹ in data set [4], 0.34 min⁻¹ in the data set listed under Rattus norvegicus and 0.043 h⁻¹ in data set [6]. The same compound gave a k1 obs in [7] of 0.052 min⁻¹.

In the data set “physchem [1]”, `COC(=O)[C@H](Cc1ccc(OC(C)=O)c(OC(C)=O)c1)NC(=O)CCCC(=O)N[C@@H](Cc1ccc(OC(C)=O)c(OC(C)=O)c1)C(=O)OC` had a log distribution coefficient (logD) of 0.87. The compound further had a k2 obs in [2] of 0.0045 min⁻¹. The results for the half-life in the data set “in vitro [3]”, in the data set “physchem [5]” and in the data set “physchem [8]” were 0.0483 h, 68.1 h and 13.9 h, respectively. Besides, the K obs in [4] came out at 0.01 h⁻¹; in the data set filed under Rattus norvegicus, 0.24 min⁻¹; in [6], 0.05 h⁻¹. The compound further came in with a k1 obs in data set [7] of 0.011 min⁻¹. The T1/2 in data set [10] is 1.05 h and 2.57 h.

In turn, `COC(=O)[C@H](Cc1ccc(OC(C)=O)c(OC(C)=O)c1)NC(=O)N[C@@H](Cc1ccc(OC(C)=O)c(OC(C)=O)c1)C(=O)OC` had a logD in the data set “physchem [1]” of 1.04. The compound also gave a k2 obs in data set [2] of 0.0025 min⁻¹. In addition, the values for the half-life in the data set “in vitro [3]”, in “physchem [5]” and in “physchem [8]” were 0.407 h, 16.5 h and 14.2 h, respectively. Further, the results for the K obs (in data set [4]; in the data set filed under Rattus norvegicus; in data set [6]) were 0.042 h⁻¹, 0.028 min⁻¹ and 0.049 h⁻¹, respectively. This compound showed a k1 obs in data set [7] of 0.0068 min⁻¹. For the same compound, the T1/2 in data set [10] is 1.698 h and 4.62 h.
